Results as given in paper PMC4457802 (PLoS ONE, 2015).
≈ marks a conversion by molar mass, not a printed value. Where two headings read alike, the source gives them in different places. Positions of bridges follow the written chain, without caps; N, C: chain ends. Residues, ends and D or L forms follow the SMILES beside them.

Key:
[1] = system: Acinetobacter baumanii ATCC 15308; format: cell-based
Source text: (§1) Thirty (30) Pneumococcal clinical isolates were obtained from University of Malaya Medical Centre (UMMC). For broad-spectrum activity of AMPs, E. coli ATCC 25922, Staphylococcus aureus ATCC 25923, P. aeruginosa ATCC 15442, Acinetobacter baumanii ATCC 15308, and one clinical isolate of each methicillin resistant S. aureus (MRSA), […], citrobacter spp., and K. pneumoniae were used in this study.
(§2) The minimum inhibitory concentration (MIC) of the peptides against 30 pneumococcal isolates was determined by broth microdilution protocol as indicated by the CLSI guidelines (Clinical and Laboratory Standards Institute). Briefly, bacterial strains were grown for 18–24 hr at 37°C under 5% CO2. Direct suspension of the colonies were made in cationically-adjusted Müeller-Hinton broth (CAMHB) and adjusted to OD 625 0.08–0.1 which corresponds to 1 ~ 2 x10^8 CFU/ml followed by serial ten-fold dilutions to give 1x10^6 CFU/ml. 50μl of bacterial suspension were added to 96-well round bottom microtiter plates containing equal volume of peptides at different concentrations (1.95, 3.90, 7.81, 15.62, 31.25, 62.5, 125, 250μg/ml) and the 96-well plates were incubated for 20-24hr at 37°C in the presence of 5% CO2.

E. coli ATCC 25922 = format: cell-based
Source text: as §1, §2

[2] = system: Methicillin resistant S. aureus (MRSA); format: cell-based
Source text: as §1, §2

P. aeruginosa ATCC 15442 = format: cell-based
Source text: as §1, §2

K. pneumoniae = format: cell-based
Source text: as §1, §2

Enterococcus cloacae = format: cell-based
Source text: as §1, §2

citrobacter spp = format: cell-based
Source text: as §1, §2

[3] = system: S. pneumoniae (30 clinical isolates); format: cell-based, Streptococcus pneumoniae; settings: for MIC S. pneumoniae (30 clinical isolates): broth microdilution, CAMHB, 20-24hr, 37°C, 5% CO2, lowest concentration that completely inhibits growth
Source text: as §1, §2

human erythrocytes = assay: Hemolytic activity assay; format: cell-based; settings: 250μg/ml; 4% human RBCs in PBS, 1hr, 37°C, absorbance 560 nm, relative to 0.1% Triton X-100, triplicate
Method: The hemolytic activity of the peptides was tested using human erythrocytes as described previously. Human red blood cells (RBCs) were freshly collected from a healthy donor, washed three times using sterile phosphate buffered saline (PBS) and centrifuged at 2000 rpm for 10 min until the upper solution became clear. RBCs were diluted to a final concentration of 4%, and 100μl of peptides at different concentrations (1.95 to 250μg/ml) were mixed with equivalent volumes of erythrocyte suspensions. After 1hr of incubation at 37°C, the cells were centrifuged at 2000 rpm for 10 min and the absorbance of the supernatants was measured at 560 nm using GloMax Multi Detection System (Promega, USA). PBS and 0.1% Triton X-100 were used as negative and positive controls, respectively. The assay was done in triplicate, and percentage of hemolysis was calculated using the following formula: 100% hemolysis = 100 (Apeptide-APBS) / (Atriton-APBS). We obtained the blood from the Blood Bank of University […] Medical Centre and ethical clearance for this work was approved by the Scientific and Ethical Committee of UMMC (Ethics Committee/IRB Reference No: 321.4). Written informed consent was obtained for each collection.

S. aureus ATCC 25923 = format: cell-based, Staphylococcus aureus
Source text: as §1, §2

S. aureus = settings: cited from earlier work
E. coli = settings: cited from earlier work
Streptococcus pneumoniae = assay: Time killing assay; format: cell-based; settings: 1×MIC, MHB, 37°C, sampled every 30 min to 240 min, triplicate
Method: The bactericidal activities of peptides were performed as described previously. […] 10μl of bacterial suspensions were removed at various time intervals (30, 60, 90, 120, 150, 180, 210, and 240 min), serially diluted in PBS and plated onto Columbia agar with 5% sheep blood for 20-24hr at 37°C in the presence of 5% CO2 to obtain viable colonies. Erythromycin and ceftriaxone were used as positive control and the assay was performed in triplicate.

[4] = system: NL-20 normal lung cell line; format: cell-based, human
Method: (§3) CellTiter 96 AQueous Non-Radioactive Cell Proliferation assay (Promega, USA) was used to evaluate the cytotoxic effects of peptides. WRL-68 (ATCC CL-48) and NL-20 (ATCC CRL2503) cell lines were purchased from American Type Culture Collection (ATCC, USA). The cell lines were grown in Dulbecco's modified Eagle's medium (DMEM) and Ham’s F-12 medium, respectively. Cells were supplemented with 10% (v/v) fetal bovine serum (FBS) in T75 flasks and incubated at 37°C in the presence of 5% CO2. Cells were seeded into 96-well plates at a density of 1×10^4 and 3×10^4 cells per well, respectively. Peptides were added to the wells at different concentrations (1.95, 3.90, 7.81, 15.62, 31.25, 62.5, 125, and 250μg) and plates were incubated at 37°C under 5% CO2 for 24, 48, and 72 hrs. Medium with and without cells was used as positive and negative controls, respectively. After incubation, 20μl of the reagent were added to each well and incubated for 1 hr at 37°C under 5% CO2. Metabolically active cells convert the yellow MTS to purple formazan, allowing for monitoring of the reaction. The absorbance was monitored at 490 nm using GloMax Multi Detection System (Promega, USA). The percentage of viable cells was calculated according to the following formula: 100 (AT-AB/AC-AB), where AT and AC are the absorbance of treated and control cells (100% survival). AB is the absorbance of medium alone. The assay was done in triplicate.

[5] = system: WRL-68 normal liver cell line; format: cell-based, human
Method: as §3

[6] = numbers in parentheses are micromolar concentrations
[7] = numbers in parentheses are micromolar concentrations, unit of the source corrected

| Molecule | MIC Acinetobacter baumanii ATCC 15308, in parentheses [1, 6] | MIC E. coli ATCC 25922, in parentheses (E. coli ATCC 25922; [7]) | MIC MRSA, in parentheses [2, 7] | MIC P. aeruginosa ATCC 15442, in parentheses (P. aeruginosa ATCC 15442; [7]) | MIC K. pneumoniae, in parentheses (K. pneumoniae; [6]) | MIC Enterococcus cloacae, in parentheses (Enterococcus cloacae; [6]) | MIC citrobacter spp, in parentheses (citrobacter spp; [6]) | MIC S. pneumoniae (30 clinical isolates), in parentheses [3, 7] | time to completely kill 10^6 CFU/ml of S. pneumoniae (Streptococcus pneumoniae) | MIC S. aureus ATCC 25923, in parentheses (S. aureus ATCC 25923; [7]) | MIC S. pneumoniae (30 clinical isolates) [3] | concentration at which toxic, NL-20 [4] | concentration at which toxic, WRL-68 [5] | also measured |
| --- | --- | --- | --- | --- | --- | --- | --- | --- | --- | --- | --- | --- | --- | --- |
| CC[C@H](C)[C@H](N)C(=O)N[C@@H](CC(C)C)C(=O)N1CCC[C@H]1C(=O)N[C@@H](Cc1c[nH]c2ccccc12)C(=O)N[C@@H](CCCCN)C(=O)N[C@@H](Cc1c[nH]c2ccccc12)C(=O)N1CCC[C@H]1C(=O)N[C@@H](Cc1c[nH]c2ccccc12)C(=O)N[C@@H](Cc1c[nH]c2ccccc12)C(=O)N1CCC[C@H]1C(=O)N[C@@H](Cc1c[nH]c2ccccc12)C(=O)N[C@@H](CCCNC(=N)N)C(=O)N[C@@H](CCCNC(=N)N)C(N)=O [Indolicidin, reference compound] | >250 (131) micromolar | 31.2 µg/mL (≈ 16.4 µM) | 31.2 µg/mL (≈ 16.4 µM) | 31.2 µg/mL (≈ 16.4 µM) | >250 (>131) micromolar | >250 (>131) micromolar | >250 (>131) micromolar | 15.6 to 31.2 µg/mL (≈ 8.19 to 16.4 µM) | – | – | – | – | – | hemolytic activity (human erythrocytes): 56.98% |
| CC[C@H](C)[C@H](NC(=O)[C@H](CCSC)NC(=O)[C@H](C)NC(=O)[C@@H]1CCCN1C(=O)[C@@H](NC(=O)[C@@H](NC(=O)[C@H](CCCCN)NC(=O)[C@@H](NC(=O)[C@H](CC(C)C)NC(=O)CNC(=O)CNC(=O)[C@H](CC(C)C)NC(=O)[C@@H](N)Cc1ccccc1)[C@@H](C)CC)[C@@H](C)CC)C(C)C)C(=O)N[C@H]1CSSC[C@@H](C(=O)O)NC(=O)[C@H](CCCCN)NC(=O)[C@H](CCCCN)NC(=O)[C@H]([C@@H](C)O)NC(=O)[C@H](C(C)C)NC(=O)[C@H](C)NC1=O [Ranalexin, reference compound] (H-FLGGLIKIVPAMICAVTKKC-OH; disulfide 14-20; N-terminus assumed) | – | – | – | – | – | – | – | – | – | – | – | – | – | MIC S. aureus ATCC 25923, in parentheses (S. aureus ATCC 25923; ATCC 25923): 31.2 µg/mL (≈ 14.9 µM); MIC Acinetobacter baumanii ATCC 15308, in parentheses ([1]; ATCC 15308): >250 (>118) micromolar; MIC E. coli ATCC 25922, in parentheses (E. coli ATCC 25922; ATCC 25922): 62.5 µg/mL (≈ 29.7 µM); MIC MRSA, in parentheses ([2]; Methicillin resistant): 31.2 µg/mL (≈ 14.9 µM); MIC P. aeruginosa ATCC 15442, in parentheses (P. aeruginosa ATCC 15442; ATCC 15442): 125 µg/mL (≈ 59.4 µM); MIC K. pneumoniae, in parentheses (K. pneumoniae): >250 (>118) micromolar; MIC Enterococcus cloacae, in parentheses (Enterococcus cloacae): >250 (>118) micromolar; MIC citrobacter spp, in parentheses (citrobacter spp): >250 (>118) micromolar; MIC S. pneumoniae (30 clinical isolates), in parentheses ([3]; 30 clinical isolates): 62.5 µg/mL (≈ 29.7 µM); MIC against S. aureus (S. aureus): 4 µg/mL (≈ 1.9 µM); MIC against E. coli (E. coli): 32 µg/mL (≈ 15.2 µM) |
| FLGGLIKKWPWWPWRR-NH2 [RN7-IN9, hybrid peptide of ranalexin and indolicidin] | 31.25 (14.7) micromolar | 7.81 µg/mL | 7.81 µg/mL | 31.2 µg/mL | >250 (>117) micromolar | >250 (>117) micromolar | >250 (>117) micromolar | 7.81 to 15.6 µg/mL | ≤ 150 min | 7.81 µg/mL | 7.81 to 15.62 µg/mL | ≥ 125 µg/mL | ≥ 62.5 µg/mL | – |
| FLGGLIKWKWPWWPWRR-NH2 [RN7-IN10, hybrid peptide of ranalexin and indolicidin] | 31.25 (13.51) micromolar | 7.81 µg/mL | 7.81 µg/mL | 31.2 µg/mL | >250 (>108) micromolar | >250 (>108) micromolar | >250 (>108) micromolar | 7.81 to 15.6 µg/mL | 30 min | 7.81 µg/mL | 7.81 to 15.62 µg/mL | ≥ 125 µg/mL | ≥ 62.5 µg/mL | – |
| FLGGLIKWPWWPWRR-NH2 [RN7-IN8, hybrid peptide of ranalexin and indolicidin] | 62.5 (31.3) micromolar | 7.81 µg/mL | 7.81 µg/mL | 31.2 µg/mL | >250 (>125) micromolar | >250 (>125) micromolar | >250 (>125) micromolar | 7.81 to 15.6 µg/mL | 120 min | 7.81 µg/mL | 7.81 to 15.62 µg/mL | ≥ 125 µg/mL | ≥ 62.5 µg/mL | – |
| FLGGLIKWWPWRR-NH2 [RN7-IN6, hybrid peptide of ranalexin and indolicidin] | 31.25 (18.23) micromolar | 7.81 µg/mL | 7.81 µg/mL | 31.2 µg/mL | >250 (>145.84) micromolar | >250 (>145.84) micromolar | >250 (>145.84) micromolar | 7.81 to 15.6 µg/mL | 240 min | 7.81 µg/mL | 7.81 to 15.62 µg/mL | ≥ 125 µg/mL | ≥ 62.5 µg/mL | – |
